Measured values taken from US20010014694A1, “Substituted phenyl compounds and derivatives thereof that modulate the activity of endothelin” (priority 1996, published 2001).

Legend:
[1] = tested on: ETA and ETB receptors; test: Endothelin binding inhibition assays of the Examples, result stated for ETA and/or ETB; design: species or system human; conditions: relative to the other compounds listed; in vitro binding assays
Description: (§1) Compounds that are potential endothelin antagonists are identified by testing their ability to compete with ^125I-labeled ET-1 for binding to human ETA receptors or ETB receptors present on isolated cell membranes. The effectiveness of the test compound as an antagonist or agonist of the biological tissue response of endothelin can also be assessed by measuring the effect on endothelin induced contraction of isolated rat thoracic aortic rings. The ability of the compounds to act as antagonists or agonists for ETB receptors can be assess by testing the ability of the compounds are to inhibit endothelin-1 induced prostacyclin release from cultured bovine aortic endothelial cells.
(§2) A. Endothelin Binding Inhibition—Binding Test #1: Inhibition of Binding to ETA Receptors
(§3) TE 671 cells (ATCC Accession No. HTB 139) express ETA receptors. These cells were grown to confluence in T-175 flasks. Cells from multiple flasks were collected by scraping, pooled and centrifuged for 10 min at 190×g. The cells were resuspended in phosphate buffered saline (PBS) containing 10 mM EDTA using a Tenbroeck homogenizer. The suspension was centrifuged at 4° C. at 57,800×g for 15 min, the pellet was resuspended in 5 ml of buffer A (5 mM HEPES buffer, pH 7.4 containing aprotinin (100 KIU/ml)) and then frozen and thawed once. 5 ml of Buffer B (5 mM HEPES Buffer, pH 7.4 containing 10 mM MnCl2 and 0.001% deoxyribonuclease Type 1) was added, the suspension mixed by inversion and then incubated at 37° C. for 30 minutes. The mixture was centrifuged at 57,800×g as described above, the pellet washed twice with buffer A and then resuspended in buffer C (30 mM HEPES buffer, pH 7.4 containing aprotinin (100 KIU/ml) to give a final protein concentration of 2 mg/ml and stored at −70° C. until use.
(§4) The membrane suspension was diluted with binding buffer (30 mM HEPES buffer, pH 7.4 containing 150 mM NaCl, 5 mM MgCl2, 0.5% Bacitracin) to a concentration of 8 μg/50 μl. ^25I-endothelin-1 (3,000 cpm, […]) was added to 50 μl of either: (A) endothelin-1 (for non specific binding) to give a final concentration 80 nM); (B) binding buffer (for total binding); or (C) a test compound (final concentration 1 nM to 100 μM). The membrane suspension (50 μl), containing up to 8 μg of membrane protein, was added to each of (A), (B), or (C). Mixtures were shaken, and incubated at 4° C. for 16-18 hours, and then centrifuged at 4° C. for 25 min at 2,500×g. Alternatively, the incubation was conducted at 24° C. When incubated at 24° C., the IC50 concentrations are 2- to 10-fold higher than when the incubation is conducted at 4° C. This, must be kept in mind when comparing IC50 concentrations among compounds provided herein.
The supernatant, containing unbound radioactivity, was decanted and the pellet counted on a Genesys multiwell gamma counter. The degree of inhibition of binding (D) was calculated according to the following equation: [formula]
Each test was generally performed in triplicate.
(§5) B. Endothelin Binding Inhibition—Binding Test #2: Inhibition of Binding to ETB Receptors
(§6) COS7 cells were transfected with DNA encoding the ETB receptor, The resulting cells, which express the human ETB receptor, were grown to confluence in T-150 flasks. Membrane was prepared as described above. The binding assay was performed as described above using the membrane preparation diluted with binding buffer to a concentration of 1 μg/50 μl.
Briefly, the COS7 cells, described above, that had been transfected with DNA encoding the ETB receptor and express the human ETB receptor on their surfaces were grown to confluence in T-175 flasks. Cells from multiple flasks were collected by scraping, pooled and centrifuged for 10 min at 190×g. The cells were resuspended in phosphate buffered saline (PBS) containing 10 mM EDTA using a Tenbroeck homogenizer. The suspension was centrifuged at 4° C. […]

[2] = target: T1, human ETB receptor (Homo sapiens, UniProt P24530); test: Binding Test #2: inhibition of 125I-labeled ET-1 binding to ETB receptors (transfected COS7 cell membranes); conditions: ETB over ETA; preferably at least 3-fold greater affinity, more preferably 5-fold or more
T1 construct: expressed in transfected cells; host or cells: COS7 cells, membrane preparation
T1 sequence (P24530 27-442): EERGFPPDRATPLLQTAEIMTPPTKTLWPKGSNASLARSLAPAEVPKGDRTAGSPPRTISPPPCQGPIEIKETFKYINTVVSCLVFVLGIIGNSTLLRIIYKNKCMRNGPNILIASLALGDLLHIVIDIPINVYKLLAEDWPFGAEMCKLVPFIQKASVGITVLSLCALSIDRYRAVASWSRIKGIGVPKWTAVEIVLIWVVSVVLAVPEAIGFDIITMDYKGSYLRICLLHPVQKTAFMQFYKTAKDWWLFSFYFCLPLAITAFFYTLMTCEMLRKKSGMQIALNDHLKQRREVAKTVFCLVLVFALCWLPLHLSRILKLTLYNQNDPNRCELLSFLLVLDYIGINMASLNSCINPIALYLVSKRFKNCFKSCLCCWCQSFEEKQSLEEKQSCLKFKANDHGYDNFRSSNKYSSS
Description: as §1, §5, §6
Briefly, the COS7 cells, described above, that had been transfected with DNA encoding the ETB receptor and express the human ETB receptor on their surfaces were grown to confluence in T-175 flasks. Cells from multiple flasks were collected by scraping, pooled and centrifuged for 10 min at 190×g. The cells were resuspended in phosphate buffered saline (PBS) containing 10 mM EDTA using a Tenbroeck homogenizer. The suspension was centrifuged at 4° C. 57,800×g for 15 min, the pellet was resuspended in 5 ml of buffer A (5 mM HEPES buffer, pH 7.4 containing aprotinin (100 KIU/ml)) and then frozen and thawed once. Five ml of Buffer B (5 mM HEPES Buffer, pH 7.4 containing 10 mM MnCl2 and 0.001% deoxyribonuclease Type 1) was added, the suspension mixed by inversion and then incubated at 37° C. for 30 minutes. The mixture was centrifuged at 57,800×g as described above, the pellet washed twice with buffer A and then resuspended in buffer C (30 mM HEPES buffer, pH 7.4 containing aprotinin (100 KIU/ml) to give a final protein concentration of 2 mg/ml.
The binding assay was performed as described above using the membrane preparation diluted to give 1 μg/50 μl of binding buffer.

[3] = target: T2, human ETA receptors (Homo sapiens, UniProt P25101); test: Binding Test #1: inhibition of 125I-labeled ET-1 binding to ETA receptors (TE 671 cell membranes); conditions: ETA over ETB; preferably at least 3-fold greater affinity, more preferably 5-fold or more
T2 construct: endogenous in cells; host or cells: TE 671 cells (ATCC HTB 139), membrane preparation
T2 sequence (P25101 21-427): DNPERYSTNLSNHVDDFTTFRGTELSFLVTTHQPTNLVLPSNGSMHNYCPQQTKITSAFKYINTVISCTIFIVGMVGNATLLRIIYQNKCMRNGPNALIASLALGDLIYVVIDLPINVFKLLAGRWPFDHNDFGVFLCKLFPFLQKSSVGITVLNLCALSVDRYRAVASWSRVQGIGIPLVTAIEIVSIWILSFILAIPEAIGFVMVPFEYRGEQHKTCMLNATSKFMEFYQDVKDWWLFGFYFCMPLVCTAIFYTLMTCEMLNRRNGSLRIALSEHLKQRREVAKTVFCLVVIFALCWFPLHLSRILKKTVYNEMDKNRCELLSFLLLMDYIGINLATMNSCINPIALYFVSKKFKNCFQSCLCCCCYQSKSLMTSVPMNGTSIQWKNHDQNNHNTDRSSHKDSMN
Description: as §1, §2, §3
as §4, with “When incubated at 24° C., the IC50 concentrations are 2- to 10-fold higher than when the incubation is conducted at 4° C. This, must be kept in mind when comparing IC50 concentrations among compounds provided herein.” left out
The supernatant, containing unbound radioactivity, was decanted and the pellet counted on a Genesys multiwell gamma counter. The degree of inhibition of binding (D) was calculated according to the following equation: [formula] […]

[4] = tested on: non-cardiovascular tissues, such as kidney, adrenal gland, and cerebellum (ETB receptors predominate); conditions: cited from earlier work

Compound	More active among these compounds [1]	further results
2-[3,4-(methylenedioxy)phenoxy]-6-[(2-carboxyethyl)-4-methoxyphenoxy]benzoic acid [Example 23]	More active	
O=C(O)c1c(Oc2ccccc2)cccc1Oc1ccccc1 [Example 9, 2,6-diphenoxybenzoic acid]		melting point: 150 to 153 °C
Cc1ccc(Oc2cccc(Oc3ccc(C)cc3)c2C(=O)O)cc1 [Example 8, 2,6-bis-(4-methylphenoxy)benzoic acid]		ETB selective (interact with greater affinity with one receptor sub-type than with the other) [2]: ETB selective; melting point: 205 to 206 °C
Cc1ccc(Oc2cccc(Oc3ccc4c(c3)OCO4)c2C(=O)O)c(Br)c1 [Example 7, 2-(2-Bromo-4-methylphenoxy)-6-[3,4-(methylenedioxy)phenoxy]benzoic acid]	More active	
2-[3,4-(methylenedioxy)phenoxy]-6-[2-(1-propenyl)-3,4-(methylenedioxy)phenoxy]benzoic acid [Example 17]	More active	ETB selective (interact with greater affinity with one receptor sub-type than with the other) [2]: ETB selective
COc1ccc(Oc2cccc(Oc3ccc(OC)cc3)c2C(=O)O)cc1 [Example 6, 2,6-bis-(4-methoxyphenoxy)benzoic acid]		ETB selective (interact with greater affinity with one receptor sub-type than with the other) [2]: ETB selective; melting point: 222 to 224 °C
Cc1cccc(Oc2cccc(Oc3ccc4c(c3)OCO4)c2C(=O)O)c1 [Example 11, 2-[3,4-(methylenedioxy)phenoxy]-6-(3-methylphenoxy)benzoic acid]	More active	
O=C(O)Cc1cccc(Oc2cccc(Oc3ccc4c(c3)OCO4)c2C(=O)O)c1 [Example 13, 2-[(3-Carboxymethyl)phenoxy]-6-[3,4-(methylenedioxy)phenoxy]benzoic acid]		ETA selective (interact with greater affinity with one receptor sub-type than with the other) [3]: ETA selective; ETB selective (interact with greater affinity with one receptor sub-type than with the other) [2]: ETB selective
4-[2-carboxy-3,4-(methylenedioxy)phenoxy]-6-[3,4-(methylenedioxy)phenoxy]-2-(methylthio)-pyrimidine		ETA selective (interact with greater affinity with one receptor sub-type than with the other) [3]: ETA selective
Cc1ccc(Oc2cccc(Oc3ccc4c(c3)OCO4)c2C(=O)O)cc1 [Example 2, 2-[3,4-(methylenedioxy)phenoxy]-6-(4-methylphenoxy)benzoic acid]	More active	
Ethyl 2-[3,4-(methylenedioxy)phenoxy]-6-[2-(carboxyethyl)-4-methoxyphenoxy]benzoate [Example 22]	More active	
O=C(O)Cc1ccc(Oc2cccc(Oc3ccc4c(c3)OCO4)c2C(=O)O)cc1 [Example 14, 2-[(4-Carboxymethyl)phenoxy]-6-[3,4-(methylenedioxy)phenoxy]benzoic acid]		ETA selective (interact with greater affinity with one receptor sub-type than with the other) [3]: ETA selective
COc1cccc(Oc2cccc(Oc3ccc4c(c3)OCO4)c2C(=O)O)c1 [Example 26, 2-[3,4-(methylenedioxy)phenoxy]-6-(3-methoxyphenoxy)benzoic acid]	More active	
COc1ccc(Oc2cccc(Oc3ccc4c(c3)OCO4)c2C(=O)O)cc1 [Example 1, 2-(4-Methoxyphenoxy)-6-[3,4-(methylenedioxy)phenoxy]benzoic acid]	More active	
O=C(O)c1c(Oc2ccc3c(c2)OCO3)cccc1Oc1ccc2c(c1)OCO2 [Example 5, 2,6-bis-[3,4-(methylenedioxy)phenoxy]benzoic acid]	More active	
COc1ccc(Sc2cccc(Oc3ccc4c(c3)OCO4)c2C(=O)O)cc1 [Example 12, 2-(4-methoxythiophenoxy)-6-[3,4-(methylenedioxy)phenoxy]benzoic acid]	More active	
4,6-Bis[2-carboxy-3,4-(methylenedioxy)phenoxy]-2-(methylthio)pyrimidine		ETA selective (interact with greater affinity with one receptor sub-type than with the other) [3]: ETA selective
(Thr^2,Phe^4,Thr^5,Tyr^6,Lys^7,Tyr^14) endothelin-1 [endothelin-3]		extent of inhibition of 125I-labelled endothelin-1 binding [4]: to the same extent
CCCc1cc2c(cc1Oc1cccc(Oc3ccc4c(c3)OCO4)c1C(=O)O)OCO2 [Example 18, 2-(3,4-methylenedioxy)phenoxy-6-[2-propyl-4,5-(methylenedioxy)phenoxy]benzoic acid]	More active	
O=C(O)CCc1cc2c(cc1Oc1cccc(Oc3ccc4c(c3)OCO4)c1C(=O)O)OCO2 [Example 19, 2-(3,4-methylenedioxy)phenoxy-6-[2-carboxyethyl-4,5-(methylenedioxy)phenoxy]benzoic acid]	More active	ETB selective (interact with greater affinity with one receptor sub-type than with the other) [2]: ETB selective
O=C(O)/C=C/c1cc2c(cc1Oc1cccc(Oc3ccc4c(c3)OCO4)c1C(=O)O)OCO2 [Example 20, 2-(3,4-methylenedioxy)phenoxy-6-[2-carboxy-trans-ethenyl-4,5-(methylenedioxy)phenoxy]benzoic acid]	More active	
